Assays:
Experiment in all cases: relative viability (nuclei count vs DMSO), 5 days (fraction); higher = more cells survive
MIM1 = compound: CC1=CSC(=NC2CCCCC2)N1/N=C/C3=C(C(=C(C=C3)O)O)O [MIM1]
Outline: (§1)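 Viability was defined as treated-well nuclei divided by vehicle-well nuclei, with the median taken over replicate plates. Cells from lung cancer lines sat overnight at 37 °C in 1536-well plates, received five √10-spaced library-drug doses by pinning on vehicle-anchored plates, and grew 5 days without medium change before one-step fixation, permeabilisation and Hoechst staining, 4× imaging and MetaXpress nuclear counts. Only plates with control CV under 25% and at least one doubling were kept.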

Luminespib = compound: CCNC(=O)c1noc(-c2cc(C(C)C)c(O)cc2O)c1-c1ccc(CN2CCOCC2)cc1 [Luminespib]
Outline: as §1

Saracatinib = compound: CN1CCN(CCOc2cc(OC3CCOCC3)c3c(Nc4c(Cl)ccc5c4OCO5)ncnc3c2)CC1 [Saracatinib]
Outline: as §1

Nilotinib = compound: Cc1cn(-c2cc(NC(=O)c3ccc(C)c(Nc4nccc(-c5cccnc5)n4)c3)cc(C(F)(F)F)c2)cn1 [Nilotinib]
Outline: as §1

Lenalidomide = compound: Nc1cccc2c1CN(C1CCC(=O)NC1=O)C2=O [Lenalidomide]
Outline: as §1

Cell Line | relative viability (MIM1; 0.2 µM) | relative viability (MIM1; 0.6325 µM) | relative viability (MIM1; 2 µM) | relative viability (MIM1; 6.325 µM) | relative viability (MIM1; 20 µM) | relative viability (Luminespib; 0.002 µM) | relative viability (Luminespib; 0.006325 µM) | relative viability (Luminespib; 0.01 µM, anchor plate) | relative viability (Luminespib; 0.02 µM) | relative viability (Luminespib; 0.06325 µM) | relative viability (Luminespib; 0.2 µM) | relative viability (Saracatinib; 0.02 µM) | relative viability (Saracatinib; 0.2 µM) | relative viability (Saracatinib; 0.6325 µM) | relative viability (Saracatinib; 2 µM) | relative viability (Nilotinib; 0.001 µM) | relative viability (Nilotinib; 0.003162 µM) | relative viability (Nilotinib; 0.01 µM) | relative viability (Nilotinib; 0.03162 µM) | relative viability (Nilotinib; 0.1 µM) | relative viability (Lenalidomide; 0.253 µM) | relative viability (Lenalidomide; 0.8 µM) | relative viability (Lenalidomide; 2.53 µM) | relative viability (Lenalidomide; 8 µM)
LU99A | 0.995 | 0.909 | 0.949 | 0.802 | 0.323 | 1.05 | 0.94 | 0.247 | 0.508 | 0.241 | 0.124 | 0.983 | 0.86 | 0.853 | 0.757 | 0.892 | 1.02 | 0.919 | 0.831 | 0.558 | 0.919 | 0.902 | 1.05 | 0.601
LXF-289 | 1.04 | 0.741 | 1.04 | 0.737 | 0.503 | 0.974 | 0.979 | 0.681 | 1.09 | 0.85 | 0.195 | 0.997 | 0.944 | 1.02 | 1.01 | 0.937 | 1.19 | 1.15 | 0.96 | 0.576 | 0.981 | 1.03 | 1.11 | 1.07
NCI-H23 | 0.99 | 0.52 | 0.798 | 0.523 | 0.209 | 0.953 | 0.932 | 0.22 | 0.663 | 0.13 | 0.141 | 1.12 | 0.794 | 0.988 | 0.739 | 0.963 | 0.899 | 1.15 | 0.668 | 0.74 | 0.922 | 0.91 | 1.18 | 0.764
NCI-H322M | 0.964 | 0.895 | 0.906 | 0.826 | 0.522 | 0.921 | 0.883 | 0.918 | 0.764 | 0.426 | 0.318 | 0.969 | 0.886 | 0.696 | 0.365 | 1.03 | 0.962 |  | 1.06 | 1.05 | 0.97 | 0.953 | 1.02 | 0.918
NCI-H358 | 1.01 | 0.953 | 0.86 | 0.429 | 0.237 | 0.966 | 0.887 | 0.352 | 0.512 | 0.115 | 0.111 | 0.938 | 0.822 | 0.568 | 0.409 | 0.831 | 1.18 | 1.12 | 0.836 | 0.776 | 0.908 | 1.01 | 0.893 | 1.08
NCI-H441 | 1.04 | 0.754 | 0.994 | 0.492 | 0.207 | 0.93 | 1.01 | 0.345 | 0.926 | 0.133 | 0.129 | 0.99 | 0.896 | 1.23 | 0.884 | 0.927 | 1.4 | 1.21 | 0.724 | 0.938 | 0.967 | 0.869 | 1.21 | 0.808
NCI-H460 | 0.988 | 0.994 | 0.827 | 0.45 | 0.124 | 1.02 | 0.952 | 0.0332 | 0.806 | 0.0356 | 0.0297 | 0.998 | 0.82 | 0.976 | 0.877 | 0.924 | 1.21 | 1.12 | 0.78 | 0.857 | 0.984 | 0.956 | 1.04 | 1
NCI-H520 | 1.02 | 1.01 | 1.01 | 0.859 | 0.383 | 1.05 | 1.02 | 0.235 | 0.547 | 0.163 | 0.157 | 1.01 |  | 0.897 | 0.494 | 0.86 |  | 1.21 | 0.896 | 0.949 | 0.918 | 0.917 | 1.14 | 0.784
NCI-H522 | 1.13 | 0.893 | 0.865 | 0.859 | 0.607 | 0.945 | 0.935 | 1.16 | 0.73 | 0.617 | 0.391 | 0.917 | 0.705 | 0.907 | 0.732 |  | 0.974 | 0.996 | 0.89 | 0.722 | 0.896 | 0.816 | 1.07 | 0.886
NCI-H596 | 1.11 | 1.19 | 0.88 | 0.939 | 0.685 | 1.06 | 0.901 | 1.09 | 0.684 | 0.919 | 0.921 | 1.12 | 0.817 | 0.906 | 0.815 | 0.939 | 0.982 | 1.05 | 0.771 | 0.848 | 0.906 | 0.704 | 1.09 | 0.723
NCI-H647 | 0.933 | 0.951 | 0.51 | 0.821 | 0.3 | 0.953 | 0.935 | 0.174 | 0.674 | 0.0941 | 0.092 | 0.967 | 0.868 | 0.858 | 0.572 | 0.889 | 1.17 | 1.35 | 0.729 | 0.878 | 0.993 | 0.753 | 1.16 | 0.904
NCI-H650 | 1.05 | 0.756 | 0.917 | 0.856 | 0.382 | 0.95 | 0.843 | 0.812 | 0.692 | 0.538 | 0.124 | 1.12 | 0.863 | 0.965 | 0.926 | 0.908 | 0.811 | 0.805 | 0.658 | 0.654 | 1.03 |  | 1.21 | 0.845
NCI-H661 | 0.991 | 1.01 | 0.941 | 0.746 | 0.406 | 1.01 | 0.969 | 0.916 | 0.778 | 0.754 | 0.325 | 1.02 | 0.977 | 0.926 | 0.669 | 0.951 | 1.06 | 1.09 | 0.949 | 0.948 | 0.917 | 0.934 | 1.03 | 0.958
NCI-H727 | 0.833 | 0.823 | 0.878 | 0.723 | 0.452 | 0.95 | 0.738 | 0.369 | 0.64 | 0.308 | 0.287 | 0.874 | 0.765 | 0.863 | 0.612 | 0.787 |  | 0.938 | 0.694 | 0.614 | 0.868 | 0.927 | 0.908 | 0.857
